Reference: patent US7662388B2, “Endogenous peptide and active subfragments thereof” (Innoventus Project AB, priority 2003, dated 2010)

Legend:
[1] = system: primary BCE cells; assay: comparative study pep2/pep3, chemotaxis; type: cell-based, bovine; settings: 100 ng/ml, FGF-2 10 ng/ml
Experimental: Primary endothelial cells were starved over night in 0.5% normal calf serum. A migration assay was performed in a modified Boyden chamber as described earlier (Auerbach et al., 1991) using micropore polycarbonate filters (8 μm thick, 8 μm pore) coated with type-1 collagen solution at 100 μg/ml (Vitrogen 100, Collagen Corp). Cells were trypsinized and resuspended at 7.5×10^5 cells/ml in Dulbecco's modified essential medium (Invitrogen) containing 0.25% BSA and Trasylol at 1000 KIE. The cell suspension was added in the upper chamber and FGF-2 (10 ng/ml), HRGP (100 ng/ml), peptide 2 or 3 (50 ng/ml) in medium containing 0.25% BSA were added to the lower chamber. The peptides were dissolved in PBS containing a 10-fold molar excess (Zn:peptide) of Zn^2+-acetate. After 5 h at 37° C., cells that had migrated through the filter were stained with Giemsa and counted using the Easy Image Analysis software. All samples were analyzed in at least six wells for each treatment. Results of the study are illustrated in FIG. 7.

[2] = system: NIH 3T3 murine fibroblasts; assay: chemotaxis assay in modified Boyden chamber, NIH 3T3 fibroblasts; type: cell-based; settings: 100 ng/ml HRGP
Experimental: (§1) The porcine aortic endothelial (PAE) cell line overexpressing FGF receptor-1 (FGFR-1) (Wennström et al 1992) was cultured in Ham's F12/10% fetal bovine serum (FCS) and NIH 3T3 murine fibroblasts were cultured in Dulbecco's modified medium (DMEM)/10% newborn calf serum (NCS). F12, DMEM and serum were bought from Life Technologies. Primary bovine adrenal cortex capillary endothelial (BCE) cells were cultured on gelatin-coated dishes in DMEM/10% NCS and 2 ng/ml FGF-2 (Boehringer Mannheim). For chemotaxis assays, both PAE and NIH 3T3 cells were serum-starved over night in 0.1% BSA and BCE cells in 0.5% NCS. Human embryonic kidney (HEK) 293-EBNA cells were cultured in DMEM/10% FCS. Approximately every second month they were given 0.25 mg/ml G418 (Calbiochem) to ensure positive selection of the EBNA-1 expressing cells.
A migration assay was performed in a modified Boyden chamber as described earlier (Auerbach et al., 1991) using micropore polycarbonate filters (8 μm thick, 8 μm pore) coated with type-1 collagen solution at 100 μg/ml (Vitrogen 100, Collagen Corp). […] After 5 h at 37° C., migrated cells were stained with Giemsa and counted using an image analysis software (Easy Image Analysis) from Tekno Optik AB, Sweden. All samples were analysed in at least six parallel wells for each treatment.

[3] = system: T241 fibrosarcoma cells; assay: fibrosarcoma tumour growth in mice (HRGP); type: in vivo; settings: fibrosarcoma-bearing mice, summary of experiment 4
Experimental: Animal work was carried out at the local animal facility and was approved by the Uppsala University board of animal experimentation and thus performed according to the UKCCCR guidelines for the welfare of animals in experimental neoplasia (Workman et al (1988)). The mice were anesthetized with isoflurane (Forene; Abbott) during all manipulations. Female, 5 week old, C57BL6/1 mice (Mollegard/Bomhultgard, Denmark) were injected with 0.5×10^6 T241 fibrosarcoma cells subcutaneously (s.c.) into the left flank. Animals carrying palpable tumours were randomized (n=7-10 animals/treatment group) and received treatment with vehicle (PBS), 4 mg/kg/day of pHRGP or 5 mg/kg/day of human IgG or His-HRGP, given as daily subcutaneous injections in the right flank. The tumours were measured with a caliper once a day, in a blind procedure, and volumes were calculated by the formula […]. When the tumours reached the upper limit of 2 cm^3, the mice were sacrificed. Three animals in each group were perfused with 4% paraformaldehyde in PBS pH 7.4. Tumours were embedded in paraffin according to standard histological procedures and sectioned at […] thickness.
C57/bl6 mice were inoculated subcutaneously with T241 fibrosarcoma cells on their left flank and when the tumours were palpable (after 4-6 days), a daily treatment was initiated with HRGP or control (PBS; FIG. 2A, or human IgG; FIG. 2B). Endostatin was included in one study for comparison (FIG. 2B). The treatment was given as subcutaneous injections in the right flank until the size of the control tumours reached the upper limit of […] (11 days; FIG. 2A, 14 days; FIG. 2B). Injections with both pHRGP (4 mg/kg/day) and His-HRGP (5 mg/kg/day) led to a drastic reduction in tumour growth and at the time of sacrifice, the size of the tumours was reduced by 67% (FIG. 2A) and 61% (FIG. 2B) respectively, compared to control-treated animals. Endostatin treatment (25 mg/kg/day) lacked significant inhibitory effect on tumour growth in this model (32% decrease).

[4] = in vivo; cited from earlier work
[5] = system: primary BCE cells; assay: chemotaxis (migration) assay in modified Boyden chamber, BCE cells; type: cell-based, bovine
Experimental: as §1
A migration assay was performed in a modified Boyden chamber as described earlier (Auerbach et al., 1991) using micropore polycarbonate filters (8 μm thick, 8 μm pore) coated with type-1 collagen solution at 100 μg/ml (Vitrogen 100, Collagen Corp). BCE, PAE/FGFR-1 or NIH 3T3 cells were preincubated or not with HRGP (100 ng/ml) for 30 min, trypsinised and resuspended at a concentration of 7.5×10^5 cells/ml in Dulbecco's modified essential medium (Invitrogen) containing 0.25% BSA and Trasylol at 1000 KIE. FGF-2 and VEGF-A was used at 5 ng/ml, HRGP and the protein C inhibitor (PCI) at 100 ng/ml and BSA at 0.25%. After 5 h at 37° C., migrated cells were stained with Giemsa and counted using an image analysis software (Easy Image Analysis) from Tekno Optik AB, Sweden. All samples were analysed in at least six parallel wells for each treatment.

[6] = system: chicken chorioallantoic membrane (CAM); assay: chicken chorioallantoic membrane (CAM) angiogenesis assay; type: in vivo; settings: FGF-2 or VEGF-A 0.2 mg per filter, HRGP 3 mg per filter, three days
Experimental: The effect of HRGP on anglogenesis was tested in the chicken chorioallantoic membrane (CAM) assay.
The conditions for the chorioallantoic membrane (CAM) assay followed essentially a previously described procedure (Friedlander et al (1995), Dixelius et al, (2000)). FGF-2 (Boehringer Mannheim) and VEGF-A (Peprotech) was used at 0.2 mg per filter and purified pHRGP or rHRGP at 3 mg per filter. The treated CAM's were inspected in a light microscope and the score, from 0 (low) to 3 (high) was based on the number of vessel branch points. Average values for 5-6 embryos were recorded.
A filter disc soaked in vehicle or growth factor, with or without HRGP, was placed on top of the CAM in the vicinity of a large vessel and incubated for three days. Treatment of the CAM with growth factors, such as FGF-2, stimulated angiogenesis (FIG. 1C; Table 1).

Q: Which “FGF-2-induced chemotaxis of primary BCE cells” value [1] does the source give for “HRGP: mature human Histidine Rich Glycoprotein, about 507 amino acid residues” here?
A: inhibited

Q: What about the “FGF-2-induced chemotaxis of NIH 3T3 murine fibroblasts” value [2] of the same substance?
A: not inhibited

Q: What about the “reduction in tumour volume compared to control-treated mice” value [3] of the same substance?
A: more than 60%

Q: What about the plasma half-life [4] of the same substance?
A: three days

Q: What about the “FCS-induced chemotaxis of BCE cells” value ([5]; 100 ng/ml HRGP) of the same substance?
A: not inhibited

Q: What about the “VEGF-A-induced chemotaxis of BCE cells” value ([5]; 100 ng/ml HRGP, VEGF-A 5 ng/ml) of the same substance?
A: inhibited

Q: And the “FGF-2-induced chemotaxis of BCE cells” value ([5]; 100 ng/ml protein, FGF-2 5 ng/ml, 5 h)?
A: completely arrested

Q: What about the “growth factor-induced CAM angiogenesis (newly formed vessels)” value [6] of the same substance?
A: effectively inhibited
